Test results published in ChEMBL document CHEMBL4387711, “Discovery of niclosamide and its O-alkylamino-tethered derivatives as potent antibacterial agents against carbapenemase-producing and/or colistin resistant Enterobacteriaceae isolates” (2019).
Activity calls are given as the source filed them. The calls are words filed in the database; no cut-off is given here.

How the values were obtained:
Klebsiella pneumoniae [1] = test: Antibacterial activity against Klebsiella pneumoniae CECT-997 assessed as inhibition of growth at 50 uM after 18 hrs; format: functional, organism-based
Klebsiella pneumoniae [2] = test: Antibacterial activity against colistin-susceptible VIM1/carbapenemase-producing Klebsiella pneumoniae 07 assessed as inhibition of growth at 50 uM after 18 hrs; format: functional, organism-based
Klebsiella pneumoniae [3] = test: Antibacterial activity against colistin-resistant VIM1/DHAI/carbapenemase-producing Klebsiella pneumoniae 21 assessed as inhibition of growth at 50 uM after 18 hrs; format: functional, organism-based
Klebsiella pneumoniae [4] = test: Antibacterial activity against colistin-susceptible OXA-48/CTX-M-15/carbapenemase-producing Klebsiella pneumoniae 28 assessed as inhibition of growth at 50 uM after 18 hrs; format: functional, organism-based
Klebsiella pneumoniae [5] = test: Antibacterial activity against colistin-resistant OXA-48/CTX-M-15/carbapenemase-producing Klebsiella pneumoniae 29 assessed as inhibition of growth at 50 uM after 18 hrs; format: functional, organism-based
Klebsiella pneumoniae [6] = test: Antibacterial activity against colistin-susceptible NDM-1/carbapenemase-producing Klebsiella pneumoniae assessed as inhibition of growth at 50 uM after 18 hrs; format: functional, organism-based
Escherichia coli [7] = test: Antibacterial activity against colistin-susceptible NDM1/KPC-producing Escherichia coli assessed as inhibition of growth at 50 uM after 18 hrs; format: functional, organism-based
Klebsiella aerogenes [8] = test: Antibacterial activity against colistin-resistant Enterobacter aerogenes 3 assessed as inhibition of growth at 50 uM after 18 hrs; format: functional, organism-based
Enterobacter cloacae [9] = test: Antibacterial activity against colistin-resistant Enterobacter cloacae 32 assessed as inhibition of growth at 50 uM after 18 hrs; format: functional, organism-based
Klebsiella aerogenes [10] = test: Antibacterial activity against colistin-resistant Enterobacter aerogenes 53 assessed as inhibition of growth at 50 uM after 18 hrs; format: functional, organism-based
Enterobacter cloacae [11] = test: Antibacterial activity against colistin-resistant Enterobacter cloacae 142 assessed as inhibition of growth at 50 uM after 18 hrs; format: functional, organism-based
Enterobacter cloacae [12] = test: Antibacterial activity against colistin-resistant Enterobacter cloacae 190 assessed as inhibition of growth at 50 uM after 18 hrs; format: functional, organism-based
Enterobacter cloacae [13] = test: Antibacterial activity against colistin-resistant Enterobacter cloacae 263 assessed as inhibition of growth at 50 uM after 18 hrs; format: functional, organism-based
Enterobacter cloacae [14] = test: Antibacterial activity against colistin-resistant Enterobacter cloacae 272 assessed as inhibition of growth at 50 uM after 18 hrs; format: functional, organism-based
Enterobacter cloacae [15] = test: Antibacterial activity against colistin-resistant Enterobacter cloacae 280 assessed as inhibition of growth at 50 uM after 18 hrs; format: functional, organism-based
Enterobacter cloacae [16] = test: Antibacterial activity against colistin-resistant Enterobacter cloacae 297 assessed as inhibition of growth at 50 uM after 18 hrs; format: functional, organism-based
Klebsiella pneumoniae [17] = test: Antibacterial activity against carbapenemase/Klebsiella pneumoniae CECT-997 by broth microdilution method; format: functional
Klebsiella pneumoniae [18] = test: Antibacterial activity against colistin-susceptible OXA-48/CTX-M-15/carbapenemase-producing Klebsiella pneumoniae 28 by broth microdilution method; format: functional
Klebsiella pneumoniae [19] = test: Antibacterial activity against colistin-susceptible NDM-1/carbapenemase-producing Klebsiella pneumoniae by broth microdilution method; format: functional
Escherichia coli [20] = test: Antibacterial activity against colistin-susceptible NDM1/KPC-producing Escherichia coli by broth microdilution method; format: functional
Enterobacter cloacae [21] = test: Antibacterial activity against colistin-resistant Enterobacter cloacae 280 by broth microdilution method; format: functional
Enterobacter cloacae [22] = test: Antibacterial activity against colistin-resistant Enterobacter cloacae 297 by broth microdilution method; format: functional
Escherichia coli [23] = test: Synergistic antibacterial activity against colistin-susceptible NDM1/KPC-producing Escherichia coli in presence of colistin by checkerboard assay; format: functional

Row | SMILES | growth inhibition (GI) (Klebsiella pneumoniae [1]) | growth inhibition (GI) (Klebsiella pneumoniae [2]) | growth inhibition (GI) (Klebsiella pneumoniae [3]) | growth inhibition (GI) (Klebsiella pneumoniae [4]) | growth inhibition (GI) (Klebsiella pneumoniae [5]) | growth inhibition (GI) (Klebsiella pneumoniae [6]) | growth inhibition (GI) (Escherichia coli [7]) | growth inhibition (GI) (Klebsiella aerogenes [8]) | growth inhibition (GI) (Enterobacter cloacae [9]) | growth inhibition (GI) (Klebsiella aerogenes [10]) | growth inhibition (GI) (Enterobacter cloacae [11]) | growth inhibition (GI) (Enterobacter cloacae [12]) | growth inhibition (GI) (Enterobacter cloacae [13]) | growth inhibition (GI) (Enterobacter cloacae [14]) | growth inhibition (GI) (Enterobacter cloacae [15]) | growth inhibition (GI) (Enterobacter cloacae [16]) | other results
1 | O=C(Nc1ccc([N+](=O)[O-])cc1Cl)c1cc(Cl)ccc1OCCN1CCNCC1 | inactive | inactive | inactive | inactive | inactive | inactive | inactive | inactive | inactive | inactive | inactive | inactive | inactive | inactive | inactive | inactive | –
2 | NCCOCCOc1ccc(Cl)cc1C(=O)Nc1ccc([N+](=O)[O-])cc1Cl | inactive | inactive | inactive | inactive | inactive | inactive | Active | inactive | inactive | inactive | inactive | inactive | inactive | inactive | inactive | Active | MIC (Klebsiella pneumoniae [17]): inactive; MIC (Klebsiella pneumoniae [18]): inactive; MIC (Klebsiella pneumoniae [19]): inactive; MIC (Escherichia coli [20]): > 15 µg/mL; MIC (Enterobacter cloacae [21]): inactive; MIC (Enterobacter cloacae [22]): > 15 µg/mL
3 | CN(C)CCOc1ccc(Cl)cc1C(=O)Nc1ccc([N+](=O)[O-])cc1Cl | inactive | inactive | inactive | inactive | inactive | inactive | inactive | inactive | inactive | inactive | inactive | inactive | inactive | inactive | inactive | inactive | –
4 | O=C(Nc1ccc([N+](=O)[O-])cc1Cl)c1cc(Cl)ccc1OC1CCNCC1 | inactive | inactive | inactive | inactive | inactive | inactive | inactive | inactive | inactive | inactive | inactive | inactive | inactive | inactive | inactive | inactive | –
5 | O=C(Nc1ccc([N+](=O)[O-])cc1Cl)c1cc(Cl)ccc1OCCN1CCOCC1 | inactive | inactive | inactive | inactive | inactive | inactive | inactive | inactive | inactive | inactive | inactive | inactive | inactive | inactive | inactive | inactive | –
6 | CN1CCN(CCOc2ccc(Cl)cc2C(=O)Nc2ccc([N+](=O)[O-])cc2Cl)CC1 | inactive | inactive | inactive | inactive | inactive | inactive | inactive | inactive | inactive | inactive | inactive | inactive | inactive | inactive | inactive | inactive | –
7 | CC[C@H](N)COc1ccc(Cl)cc1C(=O)Nc1ccc([N+](=O)[O-])cc1Cl | inactive | inactive | inactive | inactive | inactive | inactive | Active | inactive | inactive | inactive | inactive | inactive | inactive | inactive | inactive | inactive | MIC (Klebsiella pneumoniae [17]): inactive; MIC (Klebsiella pneumoniae [18]): inactive; MIC (Klebsiella pneumoniae [19]): inactive; MIC (Escherichia coli [20]): > 15 µg/mL; MIC (Enterobacter cloacae [21]): inactive; MIC (Enterobacter cloacae [22]): inactive; fractional inhibitory concentration index (FICI) (Escherichia coli [23]): 0.5
8 | NCCCOc1ccc(Cl)cc1C(=O)Nc1ccc([N+](=O)[O-])cc1Cl | inactive | inactive | inactive | inactive | inactive | inactive | inactive | inactive | inactive | inactive | inactive | inactive | inactive | inactive | inactive | inactive | –
9 | O=C(Nc1ccc([N+](=O)[O-])cc1Cl)c1cc(Cl)ccc1OCCN1CCCCC1 | inactive | inactive | inactive | inactive | inactive | inactive | inactive | inactive | inactive | inactive | inactive | inactive | inactive | inactive | inactive | inactive | –
10 | CN1CCC(Oc2ccc(Cl)cc2C(=O)Nc2ccc([N+](=O)[O-])cc2Cl)CC1 | inactive | inactive | inactive | inactive | inactive | inactive | inactive | inactive | inactive | inactive | inactive | inactive | inactive | inactive | inactive | inactive | –
11 | NCCOc1ccc(Cl)cc1C(=O)Nc1ccc([N+](=O)[O-])cc1Cl | inactive | inactive | inactive | inactive | inactive | inactive | inactive | inactive | inactive | inactive | inactive | inactive | inactive | inactive | inactive | inactive | –
